The supplement of paper PMC13380429

What was measured:
Settings in all cases: 72 h
HepG2 [1] = test: relative viability EC50 (midpoint between 100% and the lowest measured viability); higher = less toxic
U2OS [2] = test: as above
HepG2 [3] = test: cell viability relative to DMSO; higher = less toxic
U2OS [4] = test: as above
Calu-3 [5] = test: as above
Vero E6 [6] = test: as above
Caco-2 [7] = test: as above
HepG2 [8] = test: drug sensitivity score (DSS) for viability; higher = more toxic; extreme values may be limits of the assay
U2OS [9] = test: as above
Calu-3 [10] = test: as above
Vero E6 [11] = test: as above
Caco-2 [12] = test: as above
Calu-3 [13] = test: relative viability EC50 (midpoint between 100% and the lowest measured viability); higher = less toxic
Vero E6 [14] = test: as above

SMILES	relative viability EC50 (HepG2 [1])	relative viability EC50 (U2OS [2])	cell viability (HepG2 [3]; 1 nM)	cell viability (HepG2 [3]; 10 nM)	cell viability (HepG2 [3]; 100 nM)	cell viability (HepG2 [3]; 1000 nM)	cell viability (HepG2 [3]; 10000 nM)	cell viability (U2OS [4]; 1 nM)	cell viability (U2OS [4]; 10 nM)	cell viability (U2OS [4]; 100 nM)	cell viability (U2OS [4]; 1000 nM)	cell viability (U2OS [4]; 10000 nM)	cell viability (Calu-3 [5]; 1 nM)	cell viability (Calu-3 [5]; 10 nM)	cell viability (Calu-3 [5]; 100 nM)	cell viability (Calu-3 [5]; 1000 nM)	cell viability (Calu-3 [5]; 10000 nM)	cell viability (Vero E6 [6]; 1 nM)	cell viability (Vero E6 [6]; 10 nM)	cell viability (Vero E6 [6]; 100 nM)	cell viability (Vero E6 [6]; 1000 nM)	cell viability (Vero E6 [6]; 10000 nM)	cell viability (Caco-2 [7]; 1 nM)	cell viability (Caco-2 [7]; 10 nM)	cell viability (Caco-2 [7]; 100 nM)	cell viability (Caco-2 [7]; 1000 nM)	cell viability (Caco-2 [7]; 10000 nM)	drug sensitivity score (HepG2 [8])	drug sensitivity score (U2OS [9])	drug sensitivity score (Calu-3 [10])	drug sensitivity score (Vero E6 [11])	drug sensitivity score (Caco-2 [12])	relative viability EC50 (Calu-3 [13])	relative viability EC50 (Vero E6 [14])
COc1ccc(C(=O)N2CCCc3cc(C4=NNC(=O)SC4C)ccc32)cc1OC (stereo unspecified)	> 10 µM	> 10 µM	83.4%	80.2%	95.9%	90.1%	81.2%	96.2%	104%	103%	96.8%	90.2%	97.5%	93.4%	101%	87.7%	70.1%	103%	100%	102%	83.7%	67.7%	95.4%	94.2%	89.8%	83.7%	71.5%	0	0	2.9	3.5	3.2		
COc1cccc(Nc2c(C(N)=O)cnc3c(C)cc(S(=O)(=O)c4cccc(C(=O)N(C)C)c4)cc23)c1																												0	0		0			
CNC(=O)[C@H]1O[C@@H](n2cnc3c(NCc4cccc(I)c4)nc(Cl)nc32)[C@H](O)[C@@H]1O [CF102]	> 10 µM		100%	102%	108%	106%	99.3%						99.1%	116%	93.2%	102%	98.3%	110%	99.5%	104%	98.3%	102%						0		0	0		> 10 µM	> 10 µM
O=C1[C@H](Cc2ccc(O)cc2)N2C(=O)CCN(C(=O)NCc3ccccc3)[C@H]2CN1Cc1cccc2ccccc12 [ICG-001]	3.6 µM		102%	105%	110%	105%	43.5%						97.4%	106%	97.1%	100%	53.1%	90%	99.2%	91.3%	97.2%	106%	91.5%	94.2%	99.7%	91%	68.8%	2.7		2.4	0	2.7		> 10 µM
Cc1sc2c(c1C)C(c1ccc(Cl)cc1)=N[C@@H](CC(=O)OC(C)(C)C)c1nnc(C)n1-2 [JQ1-(+)]																												10	9.2	6	17.3			
Cc1csc2c(N[C@@H](C)CN3CCN(S(=O)(=O)c4ccc(Cl)c(Cl)c4)CC3)ncnc12 [LPA2-antagonist-1]	0.451 µM		106%	97.9%	93.2%	36.6%	18.6%	97.6%	101%	97.4%	97%	58.7%	90.5%	104%	96.9%	103%	93.6%	95.2%	97.1%	102%	93.2%	82.5%	96.3%	107%	95.3%	80.9%	64.4%	12.8	2.5	0	1.1	3.7	> 10 µM	> 10 µM
O=C(O)[C@]1(Cc2cccc(Nc3nccs3)n2)CC[C@@H](Oc2cccc(Cl)c2F)CC1 [MK-5108]	0.787 µM		111%	106%	99.3%	62.2%	40.2%	97.9%	100%	94.5%	95.1%	73.3%	98.6%	90.3%	89.1%	88%	76.8%	97.3%	100%	100%	94.6%	79.5%	95.6%	100%	90.2%	76.2%	70.7%	7.8	1.8	2.4	1.3	4.6	> 10 µM	> 10 µM
CC(C)(C)Nc1nc(Nc2ccc(C(N)=O)cc2)cc(N)c1C#N [TC-Mps1-12]	0.555 µM		91.7%	89.8%	88.4%	66.2%	39.5%	93.6%	96.6%	94.8%	95%	62.9%	97.5%	103%	104%	109%	100%	104%	102%	101%	98.2%	61.7%	94.9%	101%	102%	95.9%	72.1%	8	2.6	0	2.1	1.8	> 10 µM	
S=C(NCc1ccc2c(c1)OCO2)N1CCN(c2ncnc3c2oc2ccccc23)CC1 [amuvatinib]	1.75 µM		100%	101%	96.2%	84%	19%	104%	96.6%	100%	95%	65.1%	98.4%	92.7%	101%	94.1%	78.7%	102%	104%	97.9%	90.4%	67.6%	95.2%	90.6%	97.1%	84.5%	68.3%	7.1	2.5	1.4	2.8	2.8	> 10 µM	
O=C(O)c1cc(-c2ccccc2)nc2ccccc12 [cinchophen]																												0.2	0	0	0			
Cc1cc(-c2ccc(/N=N/c3ccc4c(S(=O)(=O)O)cc(S(=O)(=O)O)c(N)c4c3O)c(C)c2)ccc1/N=N/c1ccc2c(S(=O)(=O)O)cc(S(=O)(=O)O)c(N)c2c1O [evans-blue]			102%	89.6%	84.2%	86.5%	52.6%	99%	98.6%	95.1%	86.3%	53.7%	92.8%	101%	105%	102%	71.9%	103%	106%	94%	91.6%	47.9%	96.7%	88.9%	104%	97.9%	51.1%	4.9	4.2	1	4.2	2.8		1.92 µM
O=C(O)CCC(=O)c1ccc(-c2ccccc2)cc1 [fenbufen]																												0	0	0	0			
CC(=O)NC[C@H]1CN(c2ccc(N3CCOCC3)c(F)c2)C(=O)O1 [linezolid]																												0	0		0			
CO[C@@]12[C@H](COC(N)=O)C3=C(C(=O)C(C)=C(N)C3=O)N1C[C@@H]1N[C@@H]12 [mitomycin-C]																												16.7	2.6	2.6	5.5			
CC(C)(O)c1ccccc1CC[C@@H](SCC1(CC(=O)O)CC1)c1cccc(/C=C/c2ccc3ccc(Cl)cc3n2)c1 [montelukast]																												0	0	0	0			
CCCCN(Cc1ccc(C(=O)NO)cc1)C(=O)Nc1ccccc1 [nexturastat-A]	1.83 µM	1.95 µM	110%	105%	97.7%	90%	43.9%	98.1%	102%	99.3%	90.1%	36.6%	89.3%	107%	98.9%	88%	51.7%	96.2%	94.5%	96.7%	99.4%	56.6%	101%	98.8%	109%	92.3%	52.3%	4.7	5.1	4.4	2.3	3.8		
CCN(CC)CC#CCOC(=O)C(O)(c1ccccc1)C1CCCCC1 (stereo unspecified) [oxybutynin]																												0	0	0	0			
COc1cccc2c1c(O)c(C(=O)N(C)c1ccc(C(F)(F)F)cc1)c(=O)n2C [tasquinimod]	> 10 µM		114%	104%	105%	98.9%	102%											94.9%	98.9%	96.7%	93%	93.9%						0			0			> 10 µM
